Assay results as given in patent US20060110594A1, “Polymer-coated substrates for binding biomolecules and methods of making and using thereof” (priority 2004, published 2006).
Several values for one entry are separate records, joined by “and”; a condition that tells them apart may be missing. Identical values can stand only once. Like-named read-outs stand apart in the source and are kept apart here.

Assays:
[1] = target: streptavidin (Streptomyces avidinii, UniProt P22629); assay: Small molecule binding to streptavidin immobilized on EMA, Corning LID; conditions: for signal-to-noise ratio: binding to streptavidin immobilized on EMA
Method: Streptavidin was immobilized on an EMA coated LID microplate by incubating the wells with a solution of 25 ug/mL of the protein in an acetate buffer (20 mM, pH 5.5) for 15 minutes. As negative controls, additional wells were blocked with ethanolamine. The binding of the small molecule fluorescein-biotin (“Fl-biotin”, 831 Da) was monitored as a function of time in the LID instrument. A 100 nM solution of Fl-biotin in PBS was introduced into each well and allowed to bind for several minutes. […] The data have been corrected for bulk index of refraction effects by subtracting out the response from the negative control well. […] This experiment was repeated in each column of the plate with similar results.

[2] = target: human serum albumin (Homo sapiens, UniProt P02768); assay: Drug binding to human serum albumin immobilized on EMA, Corning LID
Method: HSA was immobilized on the sensor surface by incubating the wells with a solution of 60 ug/mL of the protein in an acetate buffer (20 mM, pH 5.5) for 15 minutes. As negative controls, additional wells were blocked with ethanolamine. After thorough washing with PBS buffer and water, residual reactive groups were blocked by incubating the wells for 10 minutes with ethanolamine (200 mM, pH 9.2).

[3] = system: Lys-D-Ala-D-Ala; assay: Vancomycin competitive inhibition on EMA coated microplate, Corning LID; format: binding; conditions: in the presence of excess (250 uM) Lys-D-Ala-D-Ala
Method: (§1) To test the specificity of the interaction, a competitive binding assay was performed in which the surface was incubated with a fixed (5 μM) concentration of vancomycin in the presence of varying concentrations of the peptide Lys-D-Ala-D-Ala. […] Similar competitive inhibition experiments were performed on a Corning LID microplate coated with EMA (see FIG. 7).

[4] = system: Lys-D-Ala-D-Ala; assay: Vancomycin binding to immobilized Lys-D-Ala-D-Ala, SPR (Biacore 2000); conditions: for Total Signal: 5 μM vancomycin; for Nonspecific Binding: 5 uM vancomycin + 500 μM DADA; for Kd: Scatchard analysis, vancomycin 10, 5, 2.5, 1.25 μM
Method: (Vancomycin is an antibiotic that binds to the C-terminal D-Ala-D-Ala group of Gram-positive bacterial cell wall precursors and inhibits cell wall synthesis.) Experiments were performed on the Biacore 2000 SPR instrument using gold sensor chips modified with either EMA or poly(triethylene glycol-co-maleic anhydride) (“PEG-MA”); for comparison, experiments were also performed on Biacore's CM5 surface.

[5] = target: Lys-D-Ala-D-Ala; conditions: measured in solution (ref 12); read-out: Kd reported in the literature; cited from earlier work
[6] = system: Lys-D-Ala-D-Ala; assay: Vancomycin competitive inhibition binding assay, SPR
Method: as §1

[7] = isoelectric point, listed property; cited from earlier work
[8] = Streptavidin binding to immobilized biotin on EMA coated microplate, Corning LID; conditions: streptavidin 100 nM in PBS, six wells
Method: The performance of EMA in a small molecule/protein binding assay was tested using a biotin/streptavidin model system and Corning LID detection. Biotin was immobilized in rows A-G of a Corning LID microplate by incubating each well with 75 uL of a 10 uM solution of biotin-peo-amine in borate buffer (150 mM, pH 9) for 30 minutes; row H was reacted with ethanolamine (200 mM in borate buffer, pH 9) to serve as a negative control. The plate was docked in the LID instrument and the binding of streptavidin (100 nM in phosphate buffered saline (PBS)) was monitored as a function of time as shown in FIG. 4A.

[9] = Streptavidin/BSA binding to biotin immobilized on MAMVE and SMA, Biacore SPR; conditions: streptavidin 1 μM; biotin-groups immobilized on MAMVE; BSA as control
Text: Biacore SPR detection was used for these experiments in which biotin was immobilized on the surfaces by injecting solutions of 5-(biotinamido)pentylamine over each surface. […] Non-specific binding of proteins to surfaces such as those presenting hydrophobic aromatic groups is well documented; the inertness of surfaces presenting —OCH3 groups to non-specific adsorption has also been observed (13).

streptavidin, sequence (P22629 25-183, species assumed): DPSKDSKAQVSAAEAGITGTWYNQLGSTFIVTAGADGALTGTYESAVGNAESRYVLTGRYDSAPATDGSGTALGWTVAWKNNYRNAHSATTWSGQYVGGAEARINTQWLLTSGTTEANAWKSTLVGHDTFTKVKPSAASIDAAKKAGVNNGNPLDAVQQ
human serum albumin, sequence (P02768 25-609): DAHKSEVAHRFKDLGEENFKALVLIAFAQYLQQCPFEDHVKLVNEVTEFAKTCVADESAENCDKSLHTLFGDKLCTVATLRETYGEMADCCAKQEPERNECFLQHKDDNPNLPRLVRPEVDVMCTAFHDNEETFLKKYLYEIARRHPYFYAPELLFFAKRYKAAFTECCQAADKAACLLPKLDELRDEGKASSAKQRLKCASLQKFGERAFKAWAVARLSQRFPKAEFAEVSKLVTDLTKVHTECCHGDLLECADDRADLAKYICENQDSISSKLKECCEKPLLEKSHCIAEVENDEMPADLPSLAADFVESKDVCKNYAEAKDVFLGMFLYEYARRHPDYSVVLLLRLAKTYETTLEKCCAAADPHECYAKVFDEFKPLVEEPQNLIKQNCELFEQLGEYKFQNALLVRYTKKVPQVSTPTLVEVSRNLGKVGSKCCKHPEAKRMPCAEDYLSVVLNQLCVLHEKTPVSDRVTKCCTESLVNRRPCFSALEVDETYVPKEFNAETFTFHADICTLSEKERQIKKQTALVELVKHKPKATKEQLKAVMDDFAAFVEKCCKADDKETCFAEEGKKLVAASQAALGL

O=C(O)CCCC[C@@H]1SC[C@@H]2NC(=O)N[C@@H]21 [biotin]
response for binding to immobilized streptavidin ([1]; EMA coated LID microplate, Fl-biotin 100 nM in PBS, relative to negative control well): ~5 pm | signal-to-noise ratio [1]: ~50

C[C@H]1O[C@@H](O[C@H]2[C@@H](O)C[C@H](O[C@H]3[C@@H](O)C[C@H](O[C@H]4CC[C@@]5(C)[C@H](CC[C@@H]6[C@@H]5CC[C@]5(C)[C@@H](C7=CC(=O)OC7)CC[C@]65O)C4)O[C@@H]3C)O[C@@H]2C)C[C@H](O)[C@@H]1O [digitoxin]
lowest concentration successfully detected [2]: 6 µM

O=C(CCCCCNC(=O)CCCC[C@@H]1SC[C@@H]2NC(=O)N[C@@H]21)NCCCCCNC(=S)Nc1ccc2c(c1)C(=O)OC21c2ccc(O)cc2Oc2cc(O)ccc21 [fluorescein-biotin]
signal-to-noise ratio [1]: > 200

CN[C@H](CC(C)C)C(=O)N[C@H]1C(=O)N[C@@H](CC(N)=O)C(=O)N[C@H]2C(=O)N[C@H]3C(=O)N[C@H](C(=O)N[C@H](C(=O)O)c4cc(O)cc(O)c4-c4cc3ccc4O)[C@H](O)c3ccc(c(Cl)c3)Oc3cc2cc(c3O[C@@H]2O[C@H](CO)[C@@H](O)[C@H](O)[C@H]2O[C@H]2C[C@](C)(N)[C@H](O)[C@H](C)O2)Oc2ccc(cc2Cl)[C@H]1O [vancomycin]
reduction of vancomycin binding signal [3]: 83% | Total Signal ([4]; CM5 surface): 1251 RU | Nonspecific Binding ([4]; CM5 surface): 3 RU | Kd ([4]; CM5 surface): 280 nM and 270 nM | Total Signal ([4]; EMA surface): 2538 RU | Nonspecific Binding ([4]; EMA surface): 290 RU | Kd ([4]; EMA surface): 340 nM | Total Signal ([4]; PEG-MA surface): 2006 RU | Nonspecific Binding ([4]; PEG-MA surface): 128 RU | Kd ([4]; PEG-MA surface): 1300 nM | Kd [5]: ~1000 nM | amount of nonspecific binding, lower on PEG-MA relative to EMA ([6]; PEG-MA relative to EMA): ~2 × | binding specificity ([6]; both maleic anhydride copolymer surfaces tested (EMA, PEG-MA), 5 μM vancomycin): > 90%

Lysozyme: protein immobilized on EMA, 14 kDa
pI [7]: 9.5

streptavidin: protein binding biotin; 60 kDa
average response [8]: 465 pm | specificity of binding [9]: specific | pI [7]: 5
